Test results as given in PubChem BioAssay AID210 (DTP/NCI, 2004).
Several values for one entry are separate records, joined by “and”; a condition that tells them apart may be missing. Equal values may be shown once. Inconclusive results and toxic doses are left out.

Tested on: CD2F1 mice, ip Colon 26 adenocarcinoma, median survival T/C
Test: NCI In Vivo Anticancer Drug Screen. Data for tumor model Colon 26 Adenocarcinoma (intraperitoneal) in CD2F1 (CDF1) mice
Settings: endpoint: median survival time, higher = longer survival
Description: The antitumor activity of compounds was measured in mice bearing transplantable tumors. Survival or tumor size were measured and the results are expressed as the measurement made in the treated group (T) divided by the measurement made in the vehicle treated control group (C). The tumor model used in this assay is Colon 26 Adenocarcinoma (intraperitoneal) in CD2F1 (CDF1) mice

[1] = dose: 6.25 mg/kg/injection, schedule: Q04DX003 (ip), vehicle: Klucel (hydroxypropylcellulose) (HPC)
[2] = dose: 12.5 mg/kg/injection, schedule: Q04DX003 (ip), vehicle: Klucel (hydroxypropylcellulose) (HPC)
[3] = dose: 25.0 mg/kg/injection, schedule: Q04DX003 (ip), vehicle: Klucel (hydroxypropylcellulose) (HPC)
[4] = dose: 50.0 mg/kg/injection, schedule: Q04DX003 (ip), vehicle: Klucel (hydroxypropylcellulose) (HPC)
[5] = dose: 100.0 mg/kg/injection, schedule: Q04DX003 (ip), vehicle: Klucel (hydroxypropylcellulose) (HPC)

Question: What does the source list for `O=S(=O)(O)O`?
Answer: T/C (dose: 30.0 mg/kg/injection, schedule: Q01DX009 (ip), vehicle: saline with Tween-80): 100 % of control; T/C (dose: 44.0 mg/kg/injection, schedule: Q01DX009 (ip), vehicle: saline with Tween-80): 95 % of control; T/C (dose: 67.0 mg/kg/injection, schedule: Q01DX009 (ip), vehicle: saline with Tween-80): 101 % of control

Question: Which T/C (dose: 10.0 mg/kg/injection, schedule: Q04DX003 (ip), vehicle: carboxymethylcellulose (CMC)) does the source give for `O=NN(CCCl)C(=O)NC1CCCCC1` here?
Answer: 121 % of control

Question: What about the T/C (dose: 40.0 mg/kg/injection, schedule: Q04DX003 (ip), vehicle: carboxymethylcellulose (CMC)) of the same compound?
Answer: 196 % of control

Question: What about the T/C (dose: 80.0 mg/kg/injection, schedule: Q04DX003 (ip), vehicle: carboxymethylcellulose (CMC)) of the same compound?
Answer: 159 % of control

Question: Which results are given for `CC[C@H](CC[C@@H](C)[C@H]1CC[C@H]2[C@@H]3CC=C4C[C@@H](OC(C)=O)CC[C@]4(C)[C@H]3CC[C@]12C)C(C)C`?
Answer: T/C (dose: 25.0 mg/kg/injection, schedule: Q04DX002 (ip), vehicle: Klucel (hydroxypropylcellulose) (HPC)): 88 % of control; T/C (dose: 50.0 mg/kg/injection, schedule: Q04DX002 (ip), vehicle: Klucel (hydroxypropylcellulose) (HPC)): 92 % of control; T/C (dose: 100.0 mg/kg/injection, schedule: Q04DX002 (ip), vehicle: Klucel (hydroxypropylcellulose) (HPC)): 102 % of control; T/C (dose: 200.0 mg/kg/injection, schedule: Q04DX002 (ip), vehicle: Klucel (hydroxypropylcellulose) (HPC)): 90 % of control; T/C (dose: 400.0 mg/kg/injection, schedule: Q04DX002 (ip), vehicle: Klucel (hydroxypropylcellulose) (HPC)): 97 % of control

Question: What does the source list for `C/C(=C\c1ccccc1)[N+](=O)[O-]`?
Answer: T/C (dose: 3.12 mg/kg/injection, schedule: Q04DX003 (ip), vehicle: Klucel (hydroxypropylcellulose) (HPC)): 91 % of control; T/C [1]: 97 % of control; T/C [2]: 96 % of control; T/C [3]: 90 % of control

Question: What does the source list for `COc1ccc2c(c1)CCC(c1ccccc1)=C2c1ccc(OCCN2CCCC2)cc1`?
Answer: T/C (dose: 6.25 mg/kg/injection, schedule: Q01DX009 (ip), vehicle: saline): 115 % of control; T/C (dose: 12.5 mg/kg/injection, schedule: Q01DX009 (ip), vehicle: saline): 111 % of control; T/C (dose: 25.0 mg/kg/injection, schedule: Q01DX009 (ip), vehicle: saline): 112 % of control

Question: With `C/C=C/C1=CC(=O)C(O)C1O` (stereo not drawn) as the compound, how does the T/C (dose: 45.0 mg/kg/injection, schedule: Q04DX002 (ip), vehicle: water) read?
Answer: 106 % of control

Question: And the T/C (dose: 90.0 mg/kg/injection, schedule: Q04DX002 (ip), vehicle: water)?
Answer: 99 % of control

Question: And the T/C (dose: 180.0 mg/kg/injection, schedule: Q04DX002 (ip), vehicle: water)?
Answer: 101 % of control

Question: How did the T/C [2] turn out when `ClCCCCCCCCCCc1ccccc1` was run?
Answer: 102 % of control

Question: And the T/C [3]?
Answer: 106 % of control

Question: And the T/C [4]?
Answer: 100 % of control

Question: And the T/C [5]?
Answer: 100 % of control

Question: And the T/C (dose: 200.0 mg/kg/injection, schedule: Q04DX003 (ip), vehicle: Klucel (hydroxypropylcellulose) (HPC))?
Answer: 106 % of control

Question: And the T/C (dose: 400.0 mg/kg/injection, schedule: Q04DX003 (ip), vehicle: Klucel (hydroxypropylcellulose) (HPC))?
Answer: 114 % of control

Question: With `CCc1c(CC(=O)O)c2cc(C)ccc2n1Cc1ccc(Cl)cc1` as the compound, how does the T/C [1] read?
Answer: 89 % of control

Question: And the T/C [2]?
Answer: 95 % of control

Question: And the T/C [3]?
Answer: 97 % of control

Question: And the T/C [4]?
Answer: 100 % of control

Question: And the T/C [5]?
Answer: 111 % of control

Question: Which results are given for `Nc1nc([Se])c2ncn(C3OC(CO)C(O)C3O)c2n1` (stereo not drawn)?
Answer: T/C (dose: 4.0 mg/kg/injection, schedule: Q04DX003 (ip), vehicle: saline): 114 % of control; T/C (dose: 4.0 mg/kg/injection, schedule: Q04DX003 (ip), vehicle: suspension in saline): 116 % of control; T/C (dose: 8.0 mg/kg/injection, schedule: Q04DX003 (ip), vehicle: saline): 104 % of control; T/C (dose: 8.0 mg/kg/injection, schedule: Q04DX003 (ip), vehicle: suspension in saline): 106 % of control; T/C (dose: 16.0 mg/kg/injection, schedule: Q04DX003 (ip), vehicle: saline): 109 % of control; T/C (dose: 16.0 mg/kg/injection, schedule: Q04DX003 (ip), vehicle: suspension in saline): 114 % of control; T/C (dose: 32.0 mg/kg/injection, schedule: Q04DX003 (ip), vehicle: saline): 111 % of control; T/C (dose: 32.0 mg/kg/injection, schedule: Q04DX003 (ip), vehicle: suspension in saline): 116 % of control; T/C (dose: 64.0 mg/kg/injection, schedule: Q04DX003 (ip), vehicle: saline): 121 % of control; T/C (dose: 64.0 mg/kg/injection, schedule: Q04DX003 (ip), vehicle: suspension in saline): 114 % of control

Question: What does the source list for `C=CC(=O)N1CN(C(=O)C=C)CN(C(=O)C=C)C1`?
Answer: T/C (dose: 3.13 mg/kg/injection, schedule: Q04DX003 (ip), vehicle: saline with Tween-80): 115 % of control; T/C (dose: 6.25 mg/kg/injection, schedule: Q04DX003 (ip), vehicle: saline with Tween-80): 110 % of control; T/C (dose: 12.5 mg/kg/injection, schedule: Q04DX003 (ip), vehicle: saline with Tween-80): 106 % of control; T/C (dose: 12.5 mg/kg/injection, schedule: Q04DX003 (ip), vehicle: saline): 122 % of control

Question: Which results are given for `O=C1c2c(O)ccc(O)c2C(=O)c2c(NCCNCCO)ccc(NCCNCCO)c21`?
Answer: T/C (dose: 0.19 mg/kg/injection, schedule: Q01DX009 (ip), vehicle: saline): 216 % of control and 277 % of control; T/C (dose: 0.25 mg/kg/injection, schedule: Q01DX009 (ip), vehicle: acid diluted with saline): 359 % of control; T/C (dose: 0.38 mg/kg/injection, schedule: Q01DX009 (ip), vehicle: saline): 289 % of control and 416 % of control; T/C (dose: 0.39 mg/kg/injection, schedule: Q01DX009 (ip), vehicle: acid diluted with saline): 259 % of control; T/C (dose: 0.39 mg/kg/injection, schedule: Q01DX009 (sc), vehicle: acid diluted with saline): 104 % of control; T/C (dose: 0.5 mg/kg/injection, schedule: Q01DX009 (ip), vehicle: acid diluted with saline): 365 % of control; T/C (dose: 0.65 mg/kg/injection, schedule: Q01DX009 (ip), vehicle: acid diluted with saline): 305 % of control; T/C (dose: 0.65 mg/kg/injection, schedule: Q01DX009 (sc), vehicle: acid diluted with saline): 104 % of control; T/C (dose: 0.75 mg/kg/injection, schedule: Q01DX009 (ip), vehicle: saline): 289 % of control and 416 % of control; T/C (dose: 1.0 mg/kg/injection, schedule: Q01DX009 (ip), vehicle: acid diluted with saline): 365 % of control; T/C (dose: 1.04 mg/kg/injection, schedule: Q04DX003 (ip), vehicle: acid diluted with saline): 386 % of control; T/C (dose: 1.04 mg/kg/injection, schedule: Q04DX003 (iv), vehicle: acid diluted with saline): 116 % of control; T/C (dose: 1.08 mg/kg/injection, schedule: Q01DX009 (ip), vehicle: acid diluted with saline): 353 % of control; T/C (dose: 1.08 mg/kg/injection, schedule: Q01DX009 (sc), vehicle: acid diluted with saline): 112 % of control; T/C (dose: 1.5 mg/kg/injection, schedule: Q01DX009 (ip), vehicle: saline): 109 % of control and 277 % of control; T/C (dose: 1.5 mg/kg/injection, schedule: Q07DX003 (iv), vehicle: acid diluted with saline): 100 % of control; T/C (dose: 1.73 mg/kg/injection, schedule: Q04DX003 (ip), vehicle: acid diluted with saline): 270 % of control; T/C (dose: 1.73 mg/kg/injection, schedule: Q04DX003 (iv), vehicle: acid diluted with saline): 120 % of control; T/C (dose: 1.8 mg/kg/injection, schedule: Q01DX009 (ip), vehicle: acid diluted with saline): 110 % of control; T/C (dose: 2.0 mg/kg/injection, schedule: Q01DX009 (ip), vehicle: acid diluted with saline): 365 % of control; T/C (dose: 2.88 mg/kg/injection, schedule: Q04DX003 (ip), vehicle: acid diluted with saline): 265 % of control; T/C (dose: 3.24 mg/kg/injection, schedule: Q01DX001 (ip), vehicle: acid diluted with saline): 209 % of control; T/C (dose: 3.24 mg/kg/injection, schedule: Q01DX001 (iv), vehicle: acid diluted with saline): 114 % of control; T/C (dose: 4.8 mg/kg/injection, schedule: Q04DX003 (ip), vehicle: acid diluted with saline): 197 % of control; T/C (dose: 5.4 mg/kg/injection, schedule: Q01DX001 (ip), vehicle: acid diluted with saline): 237 % of control; T/C (dose: 5.4 mg/kg/injection, schedule: Q01DX001 (iv), vehicle: acid diluted with saline): 110 % of control; T/C (dose: 6.0 mg/kg/injection, schedule: Q07DX003 (iv), vehicle: acid diluted with saline): 96 % of control; T/C (dose: 9.0 mg/kg/injection, schedule: Q01DX001 (ip), vehicle: acid diluted with saline): 123 % of control; T/C (dose: 9.0 mg/kg/injection, schedule: Q01DX001 (iv), vehicle: acid diluted with saline): 123 % of control

Question: What does the source list for `COc1cccc2c1C(=O)c1c(O)c3c(c(O)c1C2=O)C[C@@](O)(C(=O)CO)C[C@@H]3OC1CC(OC(C)=O)C(OC(C)=O)C(C)O1` (stereo partly drawn)?
Answer: T/C (dose: 58.0 mg/kg/injection, schedule: Q07DX002 (sc), vehicle: distilled water + Tween-80): 109 % of control; T/C (dose: 101.0 mg/kg/injection, schedule: Q07DX002 (sc), vehicle: distilled water + Tween-80): 120 % of control; T/C (dose: 300.0 mg/kg/injection, schedule: Q07DX002 (sc), vehicle: distilled water + Tween-80): 150 % of control
